Results reported in patent publication US20160067331A1 (priority 2013, published 2016).

Experiments:
Lck = Lck (Homo sapiens, UniProt P06239); type: biochemical
[1] = tested on: T cell receptor (TCR) signaling; type: cell-based, human

Lck, sequence (P06239 whole entry): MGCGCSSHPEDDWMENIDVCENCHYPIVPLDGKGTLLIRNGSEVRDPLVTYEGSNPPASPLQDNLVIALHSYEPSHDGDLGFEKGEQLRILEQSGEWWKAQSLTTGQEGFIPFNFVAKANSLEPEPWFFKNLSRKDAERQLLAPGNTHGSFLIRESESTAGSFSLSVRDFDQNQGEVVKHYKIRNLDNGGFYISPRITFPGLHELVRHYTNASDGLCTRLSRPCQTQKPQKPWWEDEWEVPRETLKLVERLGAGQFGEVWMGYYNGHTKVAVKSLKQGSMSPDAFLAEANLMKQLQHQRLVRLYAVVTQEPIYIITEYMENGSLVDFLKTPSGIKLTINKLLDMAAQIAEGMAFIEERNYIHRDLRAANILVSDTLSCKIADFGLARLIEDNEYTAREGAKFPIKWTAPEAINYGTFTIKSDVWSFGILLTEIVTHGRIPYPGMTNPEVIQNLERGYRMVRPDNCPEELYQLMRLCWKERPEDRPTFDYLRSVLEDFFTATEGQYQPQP

## GGAGLTGGRYEPLVRRC [TAT-276-292]
Lck
  Lck-mediated phosphorylation of synthetic peptide: served as an in vitro Lck substrate

## GGGGGRKKRRQRRRVYGSVSVTCVWGS [TAT-Y87]
[1]
  IL-2 production by PBMCs following TCR stimulation: inhibited
  surface expression of T cell activation marker CD25: significantly reduced
  surface expression of T cell activation marker CD69: significantly reduced
Lck
  Lck-mediated phosphorylation of synthetic peptide: phosphorylated by Lck in a dose-dependent manner
